Reference: article PMC11381239, “Endocannabinoid regulation of inward rectifier potassium (Kir) channels” (Frontiers in Pharmacology, 2024)
Numbering of substitutions follows the chain as printed.

molecular target: T1, Kir2.1 (Homo sapiens, UniProt P63252); test: two-electrode voltage clamp, slope conductance Gmax; format: cell-based; details: not given
T1 construct: gene KCNJ2; full-length human Kir2.1 cDNA in pcDNA3.1, RNA expressed in Xenopus laevis oocytes; homotetramer
T1 sequence (P63252 1-427): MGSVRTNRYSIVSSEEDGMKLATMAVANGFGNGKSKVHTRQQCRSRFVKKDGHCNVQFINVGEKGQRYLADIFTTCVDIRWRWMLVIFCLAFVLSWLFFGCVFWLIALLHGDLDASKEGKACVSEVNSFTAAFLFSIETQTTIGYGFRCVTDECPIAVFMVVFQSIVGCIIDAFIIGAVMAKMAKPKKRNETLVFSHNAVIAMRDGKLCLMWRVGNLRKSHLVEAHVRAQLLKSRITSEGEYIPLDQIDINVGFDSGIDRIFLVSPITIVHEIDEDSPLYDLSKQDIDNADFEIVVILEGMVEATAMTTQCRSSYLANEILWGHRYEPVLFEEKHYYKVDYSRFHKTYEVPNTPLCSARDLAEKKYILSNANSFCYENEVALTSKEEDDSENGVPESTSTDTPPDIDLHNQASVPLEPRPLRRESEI
Description: two-electrode voltage clamp, slope conductance Gmax on Kir2.1

CCCCC/C=C\C/C=C\C/C=C\C/C=C\CCCC(=O)OC(CO)CO [2-AG] and CCCCC/C=C\C/C=C\C/C=C\C/C=C\CCCC(=O)OCC(O)CO (stereo not drawn) [1-AG] are within 1.5-fold of each other in EC50: 25.5 ± 1.1 µM for the first, 20 ± 0.9 µM for the second.

Compared with CC/C=C\C/C=C\C/C=C\CCCCCCCC(=O)NCCO [αLnEA], CCCCC/C=C\C/C=C\C/C=C\CCCCC(=O)NCCO [ϒLnEA] is 1.5-fold higher in EC50: 24.5 ± 4.2 µM for the first, 36.8 ± 3.8 µM for the second. The first is the more potent here.

CCCCCCCCCCCCCCCCCC(=O)NCCO [SEA] and CCCCCCCCCCCCCCCCCCCC(=O)NCCO [ArEA] are within error of each other in EC50: 10.2 ± 4.9 µM for the first, 12.6 ± 4.1 µM for the second.

CCCCCC/C=C\CCCCCCCC(=O)NCCO [POEA] and CCCCCCCC/C=C\CCCCCCCC(=O)NCCO [OEA] are within error of each other in EC50: 9.3 ± 0.7 µM for the first, 9.2 ± 0.9 µM for the second.

CCCCCCCC/C=C\CCCCCCCCCCCCCC(=O)NCCO [NEA] and CCCCC/C=C\C/C=C\CCCCCCCC(=O)NCCO [LEA] are within 1.5-fold of each other in EC50: 23.3 ± 2.1 µM for the first, 29 ± 1 µM for the second.

CCCCC/C=C\C/C=C\C/C=C\C/C=C\CCCCCC(=O)NCCO [DEA] and CCCCC/C=C\C/C=C\C/C=C\C/C=C\CCCC(=O)NCC(=O)O [NAGly] are within error of each other in EC50: 32 ± 3.9 µM for the first, 27.7 ± 2.8 µM for the second.

For CCCCCCCCCCCCCCCC(=O)OC(CO)CO [2-PG], the EC50 was 12.7 ± 2 µM.

same assay, conditions: activation; 89 mM KCl bath, pH 7.4, room temperature; mode: indirect via membrane according to authors

oxy-AEA was tested, and the EC50 was 25.3 ± 1.1 µM.

same assay, conditions: maximal increase in Gmax; 89 mM KCl bath, pH 7.4, room temperature; vehicle (ethanol) control in same table

Going from CCCCC/C=C\C/C=C\C/C=C\C/C=C\CCCC(=O)N[C@@H](CO)C(=O)O [AS] to CCCCC/C=C\C/C=C\C/C=C\C/C=C\CCCC(=O)NCCO [AEA], the “Emax (%)” value rises from 1.0 ± 0.1% to 5.3 ± 1.3%.

With CCCCC/C=C\C/C=C\CCCCCCCC(=O)OC(CO)CO [2-LG] the “Emax (%)” value was 5.4 ± 0.3%.

molecular target: T2, WT:G144S Kir2.1 (Homo sapiens, UniProt P63252, G144S); test: as above; format: cell-based; details: not given
T2 construct: gene KCNJ2; WT Kir2.1 co-expressed 1:1 with LQT7 mutant G144S Kir2.1 in Xenopus laevis oocytes; mixed tetramers, exact subunit stoichiometry not fixed
T2 sequence (P63252 1-427): T1 sequence (P63252 1-427)
T2 sequence (P63252 1-427 G144S): T1 sequence (P63252 1-427) with G144S

First: CCCCCCCCCCCCCCCCCCCC(=O)NCCO [ArEA]
Second: CCCCCCCCCCCCCCCC(=O)OC(CO)CO [2-PG]
The EC50 of the first is 2.6-fold higher: 30.7 ± 3.4 µM for the first, 11.7 ± 1 µM for the second.

molecular target: T3, Kir4.1 (Rattus norvegicus, UniProt P49655); test: as above; format: cell-based; details: not given
T3 construct: gene Kcnj10; full-length rat Kir4.1 cDNA in pcDNA3.1, RNA expressed in Xenopus laevis oocytes; homotetramer
T3 sequence (P49655 1-379): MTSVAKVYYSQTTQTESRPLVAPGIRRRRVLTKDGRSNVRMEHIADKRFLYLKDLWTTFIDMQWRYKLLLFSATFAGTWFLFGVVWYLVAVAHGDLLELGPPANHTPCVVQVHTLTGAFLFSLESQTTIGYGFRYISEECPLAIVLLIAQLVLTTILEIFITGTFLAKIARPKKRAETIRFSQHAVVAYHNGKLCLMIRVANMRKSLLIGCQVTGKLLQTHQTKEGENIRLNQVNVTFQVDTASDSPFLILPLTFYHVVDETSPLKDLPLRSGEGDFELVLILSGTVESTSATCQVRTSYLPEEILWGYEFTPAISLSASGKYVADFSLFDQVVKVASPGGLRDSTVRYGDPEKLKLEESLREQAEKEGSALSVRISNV
Description: two-electrode voltage clamp, slope conductance Gmax on Kir4.1

Going from CCCCCCCCCCCCCCCCCCCC(=O)NCCO [ArEA] to CCCCCCCCCCCCCCCC(=O)OC(CO)CO [2-PG], the EC50 rises from 4.5 ± 3.9 µM to 12.4 ± 0.7 µM (2.8-fold). The first is the more potent here.
